Test results from US20140328840A1, “MARKER AND TARGET FOR RESPONSIVENESS AND RESISTANCE TO CANCER AGENTS” (The Provost, Fellows, Foundation Scholars, and the Other …, priority 2011, published 2014).

What was measured:
[1] = tested on: NmU mRNA in HCC1954 cells; experiment: Short-term drug exposure, qPCR of NmU mRNA in conditioned medium and cells; type: cell-based; conditions: 48 hours; for induced NmU mRNA in CM / induced NmU mRNA in cells: HCC1954, 0.5 μM, vs untreated control
Procedure: (§1) Conditioned medium (CM) was collected, centrifuged and filtered, as previously described (1-2), prior to NmU mRNA and protein analysis.
(§2) Total RNA was isolated from cell lines and CM using TriReagent (Sigma-Aldrich). In order to remove any potential contaminating genomic DNA, RNA was treated with DNase enzymes and minus reverse transcriptase enzyme controls verified no DNA/pseudogene contamination of starting material. cDNA was prepared from 500ng cell-derived and 4 μl CM-derived total RNA, respectively.

[2] = tested on: HCC1954 cells; experiment: Resistance to HER-targeted drugs after exogenous NmU treatment; type: cell-based; conditions: HCC1954, exogenous NmU (NmU-25) 48 hours; all drugs
Procedure: (§3) To assess if functional NmU receptors are expressed on cells, SKBR3 and HCC1954, (1×10^6 cells) were seeded in 25 cm^2 flask, allowed attach overnight and subsequently treated with 1 μM of NmU-25 (Bachem, Switzerland) for 24-48 hours.

[3] = tested on: SKBR3-LR, HCC1954-LR, T47D and MDA-MB-361 cells; experiment: Effects of NmU siRNAs with HER-targeted drugs on proliferation (acid phosphatase); type: cell-based
Procedure: (§4) Two siRNAs, designated NmU-1 (SEQ ID NO: 3; 5′-[…]-3′) and NmU-2 (SEQ ID NO: 4; 5′-[…]-3′) (s225456 and s21351, respectively, Ambion, UK), (30 nM) were used to target NmU. Scrambled siRNA (SCR) (AM4611, Ambion, UK) was used as negative control. Transient transfections were harvested 72 hours post-transfection for RNA and protein extraction. NmU full-length cDNA was sub-cloned from pOTB7 (clone ID3502168, Open Biosystems, Ireland) by PCR into pcDNA 3.1(+) zeo-plasmid vector (Invitrogen, Ireland). The construct was verified by DNA sequencing. Mock controls used were of pcDNA3.1(+) plasmid lacking NmU cDNA. Lipofectamine 2000 (Invitrogen, Ireland) was used for transfection following the manufacturer's instructions. Stable transfectants were established by selecting with zeocin (50 μg/ml and 300 μg/ml for HCC1954 and SKBR3 transfected cells, respectively; based on initial assessment of the toxicity of zeocin on these cells) (Invitrogen, Ireland).
(§5) To investigate if knock-down of NmU affected response to HER-targeting, cell lines with acquired Lapatinib-resistance (SKBR3-LR, HCC1954-LR) and innately unresponsive (MDA-MB-361, T47D) were assessed. […] Similarly, fixed concentrations of Neratinib (1 μM) and Afatinib (0.5 μM) were used. These were cultured for 72 hours and subsequently assessed using acid phosphate analysis.

[4] = tested on: HCC1954 cells; conditions: cited from earlier work
[5] = tested on: SKBR3-NmU cells; experiment: Proliferation assay, NmU cDNA- versus mock-transfected cells; type: cell-based; conditions: SKBR3-NmU vs SKBR3-mock
Procedure: as §4
(§6) Cells with acquired-resistance compared to aged-parent cells and NmU cDNA-versus mock-transfected cells (HCC1954 variants, 2×10^3 cells/well; SKBR3 variants, 5×10^3 cells/well) were seeded for 24 hours prior to drug additions. […] Five days later, acid phosphatase assay was performed as previously detailed (3).

[6] = tested on: HCC1954-NmU cells; experiment: as above; type: cell-based; conditions: HCC1954-NmU vs HCC1954-mock
Procedure: as §4, §6

[7] = tested on: NmU mRNA in SKBR3 cells; experiment: Short-term drug exposure, qPCR of NmU mRNA in conditioned medium and cells; type: cell-based; conditions: SKBR3, 1 μM, 48 hours, vs untreated control CM
Procedure: as §1, §2

[8] = tested on: SKBR3-LR cells; experiment: Proliferation assay (acid phosphatase), Lapatinib-resistant SKBR3; type: cell-based
Procedure: (§7) SKBR3, HCC1954, MDA-MB-361, T47D cells, obtained from ATCC, were cultured in RPMI-1640 (Sigma-Aldrich) with 10% FCS (PAA) and 1% L-glutamine. […] Lapatinib-resistant SKBR3 and HCC1954 cells (SKBR3-LR, HCC1954-LR) were established by continuously exposing cells to Lapatinib, starting with 5 nM and incrementally increasing to 250 nM over 6 months. Neratinib-resistant SKBR3 and HCC1954 cells (SKBR3-NR, HCC1954-NR) resulted from continuously exposing cells to Neratinib, starting with 10 nM and incrementally increasing to 250 nM over 6 months.
as §6

[9] = tested on: T47D; conditions: cited from earlier work
[10] = tested on: SKBR3 cells; conditions: cited from earlier work
[11] = tested on: SKBR3-Ag cells; experiment: Proliferation assay (acid phosphatase), aged parent SKBR3; type: cell-based; conditions: Homo sapiens, SK-BR-3, 120 h, read-out: concentration that inhibits 50% of proliferation (IC50), five days
Procedure: as §7, §6

[12] = tested on: HCC1954-Ag cells; experiment: Proliferation assay (acid phosphatase), aged parent HCC1954; type: cell-based; conditions: Homo sapiens, 120 h, read-out: concentration that inhibits 50% of proliferation (IC50), five days
Procedure: as §7, §6

[13] = tested on: T47D cells; experiment: Proliferation, previously determined IC50; type: cell-based; conditions: Homo sapiens, read-out: approximate IC50 concentration
Procedure: as §5

[14] = tested on: MDA-MB-361 cells; experiment: Proliferation, previously determined IC50; type: cell-based; conditions: Homo sapiens; MDA-MB-361, previously determined; read-out: approximate IC50 concentration
Procedure: as §5

[15] = tested on: MDA-MB-361; conditions: cited from earlier work
[16] = tested on: HCC1954-LR cells; experiment: Proliferation assay (acid phosphatase), Lapatinib-resistant HCC1954; type: cell-based
Procedure: as §7, §6

[17] = tested on: HER2; experiment: Exogenous NmU treatment, HER2 expression; type: cell-based; conditions: 1 μM, 24-48 hours; SKBR3 and HCC1954 cells
Procedure: as §3
(§8) Total cellular proteins (30-40 μg, depending on the specific protein's abundance; but constant for any given protein) were resolved on 6-10% SDS-PAGE and transferred to PVDF membranes (Millipore, Ireland). Primary antibodies used included EGFR (Neomarker); HER2 (Calbiochem); Akt, p-Akt (Cell Signalling); NmU-R1 (Sigma-Aldrich); NmU-R2 (LifeSpan Biosciences); β-actin (Sigma-Aldrich). Membranes were incubated with appropriate horseradish peroxidase-conjugated secondary antibodies (Cell Signalling) and proteins were visualized by chemiluminescence (Millipore). Detection was performed with a Chemidoc exposure system (Bio-Rad Laboratories). ELISA kit for NmU (Peninsula Laboratories, US), HER2 (Calbiochem, US), p-HER2, EGFR, p-EGFR (R&D Systems, US) were used according to the manufacturer's instructions.

[18] = tested on: EGFR; experiment: Exogenous NmU treatment, EGFR expression; type: cell-based; conditions: 1 μM, 24-48 hours
Procedure: as §3, §8

Compound: CN(C)C/C=C/C(=O)Nc1cc2c(Nc3ccc(F)c(Cl)c3)ncnc2cc1O[C@H]1CCOC1 [Afatinib]
- induced NmU mRNA in CM [1]: 3.3±0.49 fold
- induced NmU mRNA in cells [1]: 3±0.38 fold
- level of resistance induced by exogenous NmU [2]: 1.1 fold
- inhibition at 0.5 µM ([3]; 0.5 μM, 72 hours, NmU-1/NmU-2 siRNA vs SCR, range over cell lines and siRNAs, read-out: further inhibition of growth with NmU knock-down): 18 to 47%

Compound: CS(=O)(=O)CCNCc1ccc(-c2ccc3ncnc(Nc4ccc(OCc5cccc(F)c5)c(Cl)c4)c3c2)o1 [Lapatinib]
- innate sensitivity/resistance [4]: sensitive
- anti-proliferative effects in NmU-transfected compared to mock-transfected cells [5]: significantly compromised
- anti-proliferative effects in NmU-transfected compared to mock-transfected cells [6]: significantly compromised
- levels of NmU mRNA detectable in CM ([1]; HCC1954, 1 μM, vs untreated control CM): significantly higher
- levels of NmU mRNA detectable in CM [7]: significantly higher
- IC50 ([8]; Homo sapiens, SK-BR-3, 120 h, read-out: concentration that inhibits 50% of proliferation (IC50), SKBR3-LR, five days): ~3000 nM
- fold resistance ([8]; SKBR3-LR in relation to SKBR3-Ag): 29.8±2.2 fold
- innate sensitivity/resistance [9]: unresponsive
- level of resistance induced by exogenous NmU [2]: 1.1 fold
- innate sensitivity/resistance [10]: sensitive
- IC50 [11]: 90 nM
- IC50 [12]: 300 nM
- IC50 [13]: ~5000 nM
- IC50 [14]: ~1000 nM
- innate sensitivity/resistance [15]: resistant
- fold resistance ([16]; HCC1954-LR compared to HCC1954-Ag): 19.1±2.8 fold
- IC50 ([16]; Homo sapiens, HCC1954, 120 h, read-out: concentration that inhibits 50% of proliferation (IC50), HCC1954-LR, five days): ~5000 nM
- further inhibition of proliferation with NmU knock-down ([3]; drug at IC50 concentration, 72 hours, NmU-1/NmU-2 siRNA vs SCR, range over cell lines and siRNAs): 12-49%

Compound: CCOc1cc2ncc(C#N)c(Nc3ccc(OCc4ccccn4)c(Cl)c3)c2cc1NC(=O)/C=C/CN(C)C [Neratinib]
- anti-proliferative effects in NmU-transfected compared to mock-transfected cells [5]: significantly compromised
- anti-proliferative effects in NmU-transfected compared to mock-transfected cells [6]: significantly compromised
- induced NmU mRNA in CM [1]: 3.6±1 fold
- induced NmU mRNA in cells [1]: 3.6±0.54 fold
- level of resistance induced by exogenous NmU [2]: 1.1 fold
- inhibition at 1 µM ([3]; 72 h, read-out: further inhibition of growth with NmU knock-down): 19 to 58%

Compound: NmU-25: exogenous NeuromedinU 25 amino acid active peptide (Bachem) (FRVDEEFQSPFASQSRGYFLFRPRN)
- expression of HER2 protein [17]: induced expression
- expression of EGFR protein ([18]; SKBR3 and HCC1954 cells): induced expression
- pEGFR ([18]; SKBR3 cells): induced expression
